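Assay format: 96-well plates, 48-hour exposure. At the GI50, growth is halved. TGI denotes the concentration required for complete inhibition of growth.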
What was measured:
Assay in all cases: inhibition of tumour cell growth, NCI panel, 48 h; in the data active = GI50 below about 0.43 µM; inactive = the rest
ACHN renal = test system: ACHN renal
HCT-15 colon = test system: HCT-15 colon
HL-60(TB) leukemia = test system: HL-60(TB) leukemia
MCF7 breast = test system: MCF7 breast
RPMI-8226 leukemia = test system: RPMI-8226 leukemia
MDA-MB-231 breast = test system: MDA-MB-231 breast
SK-OV-3 ovarian = test system: SK-OV-3 ovarian
MALME-3M melanoma = test system: MALME-3M melanoma
OVCAR-5 ovarian = test system: OVCAR-5 ovarian
A498 renal = test system: A498 renal
SNB-75 CNS = test system: SNB-75 CNS
HCC-2998 colon = test system: HCC-2998 colon
786-0 renal = test system: 786-0 renal
SN12C renal = test system: SN12C renal
HT29 colon = test system: HT29 colon
SK-MEL-2 melanoma = test system: SK-MEL-2 melanoma
M14 melanoma = test system: M14 melanoma
SF-295 CNS = test system: SF-295 CNS
MDA-MB-435 = test system: MDA-MB-435
HCT-116 colon = test system: HCT-116 colon
UACC-62 melanoma = test system: UACC-62 melanoma
SK-MEL-28 melanoma = test system: SK-MEL-28 melanoma
OVCAR-3 ovarian = test system: OVCAR-3 ovarian
NCI-H226 lung = test system: NCI-H226 lung
NCI-H522 lung = test system: NCI-H522 lung
DU-145 prostate = test system: DU-145 prostate
T-47D breast = test system: T-47D breast
HS 578T breast = test system: HS 578T breast
SW-620 colon = test system: SW-620 colon
LOX IMVI melanoma = test system: LOX IMVI melanoma
TK-10 renal = test system: TK-10 renal
UACC-257 melanoma = test system: UACC-257 melanoma
A549 NSCLC = test system: A549 NSCLC
OVCAR-4 ovarian = test system: OVCAR-4 ovarian
MOLT-4 leukemia = test system: MOLT-4 leukemia
IGROV1 ovarian = test system: IGROV1 ovarian
CAKI-1 renal = test system: CAKI-1 renal
SF-539 CNS = test system: SF-539 CNS
BT-549 breast = test system: BT-549 breast
U251 CNS = test system: U251 CNS
SK-MEL-5 melanoma = test system: SK-MEL-5 melanoma
SNB-19 CNS = test system: SNB-19 CNS
NCI/ADR-RES ovarian = test system: NCI/ADR-RES ovarian
RXF 393 renal = test system: RXF 393 renal
CCRF-CEM leukemia = test system: CCRF-CEM leukemia
NCI-H460 lung = test system: NCI-H460 lung
K-562 leukemia = test system: K-562 leukemia
SR leukemia = test system: SR leukemia
HOP-92 NSCLC = test system: HOP-92 NSCLC
EKVX NSCLC = test system: EKVX NSCLC
OVCAR-8 ovarian = test system: OVCAR-8 ovarian
PC-3 prostate = test system: PC-3 prostate
UO-31 renal = test system: UO-31 renal
SF-268 CNS = test system: SF-268 CNS
HOP-62 NSCLC = test system: HOP-62 NSCLC
NCI-H23 lung = test system: NCI-H23 lung

N#Cc1c(N)nn(C(=O)c2ccc(NC(=O)c3ccccn3)cc2)c1-c1ccc(Cl)cc1
33.3 µM: TGI (SNB-19 CNS)
34.9 µM: TGI (SK-OV-3 ovarian)
24.3 µM: TGI (OVCAR-3 ovarian)
8.37 µM: TGI (HOP-62 NSCLC)
7.29 µM: TGI (DU-145 prostate)
6.45 µM: TGI (MALME-3M melanoma)
5.27 µM: TGI (UO-31 renal)
16.8 µM: TGI (IGROV1 ovarian)
6.02 µM: TGI (OVCAR-4 ovarian)
17.7 µM: TGI (OVCAR-8 ovarian)
4.07 µM: TGI (SNB-75 CNS)
24.1 µM: TGI (SF-268 CNS)
68.3 µM: TGI (UACC-257 melanoma)
5.75 µM: TGI (U251 CNS)
12.5 µM: TGI (SF-539 CNS)
15.7 µM: TGI (SF-295 CNS)
8.54 µM: TGI (786-0 renal)
31 µM: TGI (NCI-H226 lung)
12.8 µM: TGI (A549 NSCLC)
> 100 µM: TGI (HCT-15 colon) | TGI (HL-60(TB) leukemia) | TGI (MCF7 breast) | TGI (RPMI-8226 leukemia) | TGI (MDA-MB-231 breast) | TGI (OVCAR-5 ovarian) | TGI (A498 renal) | TGI (HCC-2998 colon) | TGI (SN12C renal) | TGI (HT29 colon) | TGI (SK-MEL-2 melanoma) | TGI (M14 melanoma) | TGI (MDA-MB-435) | TGI (HCT-116 colon) | TGI (UACC-62 melanoma) | TGI (SK-MEL-28 melanoma) | TGI (NCI-H522 lung) | TGI (HS 578T breast) | TGI (SW-620 colon) | TGI (LOX IMVI melanoma) | TGI (MOLT-4 leukemia) | TGI (BT-549 breast) | TGI (SK-MEL-5 melanoma) | TGI (NCI/ADR-RES ovarian) | TGI (CCRF-CEM leukemia) | TGI (K-562 leukemia) | TGI (SR leukemia) | TGI (EKVX NSCLC) | TGI (PC-3 prostate)
15.5 µM: TGI (ACHN renal)
9.5 µM: TGI (HOP-92 NSCLC)
34.8 µM: TGI (NCI-H23 lung)
19.4 µM: TGI (TK-10 renal)
61.7 µM: TGI (NCI-H460 lung)
inactive: GI50 (ACHN renal) 3.48 µM | GI50 (HCT-15 colon) 5.04 µM | GI50 (HL-60(TB) leukemia) > 100 µM | GI50 (MCF7 breast) 2.71 µM | GI50 (RPMI-8226 leukemia) > 100 µM | GI50 (MDA-MB-231 breast) 11.6 µM | GI50 (SK-OV-3 ovarian) 5.23 µM | GI50 (MALME-3M melanoma) 2.35 µM | GI50 (OVCAR-5 ovarian) 8.65 µM | GI50 (A498 renal) 15.1 µM | GI50 (SNB-75 CNS) 1.86 µM | GI50 (HCC-2998 colon) 3.68 µM | GI50 (786-0 renal) 2.97 µM | GI50 (SN12C renal) 6.42 µM | GI50 (HT29 colon) 3.55 µM | GI50 (SK-MEL-2 melanoma) 71.6 µM | GI50 (M14 melanoma) 5.52 µM | GI50 (SF-295 CNS) 3.06 µM | GI50 (MDA-MB-435) 4.81 µM | GI50 (HCT-116 colon) 3.32 µM | GI50 (UACC-62 melanoma) 9.45 µM | GI50 (SK-MEL-28 melanoma) 5.68 µM | GI50 (OVCAR-3 ovarian) 3.9 µM | GI50 (NCI-H226 lung) 3.08 µM | GI50 (NCI-H522 lung) 4.52 µM | GI50 (DU-145 prostate) 2.7 µM | GI50 (T-47D breast) 2.79 µM | GI50 (HS 578T breast) 2.89 µM | GI50 (SW-620 colon) 3.7 µM | GI50 (LOX IMVI melanoma) 5.75 µM | GI50 (TK-10 renal) 3.65 µM | GI50 (UACC-257 melanoma) 4.34 µM | GI50 (A549 NSCLC) 3.24 µM | GI50 (OVCAR-4 ovarian) 2.33 µM | GI50 (MOLT-4 leukemia) 25.7 µM | GI50 (IGROV1 ovarian) 2.63 µM | GI50 (CAKI-1 renal) 2.06 µM | GI50 (SF-539 CNS) 3.21 µM | GI50 (BT-549 breast) 4.86 µM | GI50 (U251 CNS) 2.33 µM | GI50 (SK-MEL-5 melanoma) 7.15 µM | GI50 (SNB-19 CNS) 4.15 µM | GI50 (NCI/ADR-RES ovarian) 4.09 µM | GI50 (RXF 393 renal) 3.11 µM | GI50 (CCRF-CEM leukemia) 8.86 µM | GI50 (NCI-H460 lung) 4.02 µM | GI50 (K-562 leukemia) 6.62 µM | GI50 (SR leukemia) 3.81 µM | GI50 (HOP-92 NSCLC) 2.31 µM | GI50 (EKVX NSCLC) 6.96 µM | GI50 (OVCAR-8 ovarian) 3.38 µM | GI50 (PC-3 prostate) 3.58 µM | GI50 (UO-31 renal) 1.79 µM | GI50 (SF-268 CNS) 3.55 µM | GI50 (HOP-62 NSCLC) 2.53 µM | GI50 (NCI-H23 lung) 3.77 µM
6.3 µM: TGI (CAKI-1 renal)
24.5 µM: TGI (RXF 393 renal)
9.15 µM: TGI (T-47D breast)

Reference: PubChem BioAssay (NCI)
